According to US7973213B2, “Antibiotic resistance conferred by a plant ABC transporter gene when expressed in transgenic plants” (University of Tennessee Research Foundation, priority 2005, dated 2011):

Tests used:
[1] = tested on: transgenic tobacco events 28 and 30; test: Resistance of Atwbc19 transgenic tobacco events to other antibiotics; format: in vivo, Nicotiana tabacum; conditions: Atwbc19-only transgenic events 28 and 30
Escherichia coli DH5α = test: Kanamycin resistance of transformed E. coli in 96-well microtiter plates (optical density 630 nm); format: cell-based; conditions: E. coli transformed with pKS-ABC, IPTG 1 mM, 24 hr
Description: Escherichia coli DH5α was obtained from stock strains available within our lab. All strains were cultured on LB media. Three plasmids were used in this study. pKS-ABC contains the Atwbc19 gene under the control of the lacZ promoter in pBluescript II SK+; pKS-nptII contains the nptII gene with the lacZ promoter in pBluescript II SK+; and pKS is pBluescript II SK+ with no inserted genes as a control. The microorganisms were maintained in glycerol stocks and stored at −80° C. Working cultures were obtained by inoculating a loopful of culture into 50 ml LB broth supplemented with ampicillin (100 mg/l) and incubated at 37° C. for 24 hr.
E. coli DH5α were transformed with pKS, pKS-ABC, and pKS-nptII by freeze/thaw method (Hanahan 1983). The gram-negative […] Escherichia coli DH5α were used in all transformations. For selection of transformants, aliquots of bacteria were spread onto solidified LB medium supplemented with ampicillin (100 mg/l) and incubated at 37° C.
Isopropyl-b-D-thiogalctopyranoside (IPTG) at 1 mM was used to induce Atwbc19 expression. Each well was filled with 199 μl LB, IPTG and varying concentrations of kanamycin or gentamycin and 50 μl bacterial treatment (DH5α transformed with pKS-ABC, DH5α transformed with pKS-nptII, DH5α transformed with pKS or none). […] Optical densities were measured at 630 nm (Biorad) after incubating microtiter plates at 37° C. for 24 hr.

[2] = tested on: Nicotiana tabacum cv Xanthi; test: Root growth of T1 transgenic tobacco (pS15-ABC-dKan) on media with kanamycin; format: in vivo; conditions: 200 mg/l kanamycin, 3 weeks
Description: Segregation analysis was performed on MS media (Murashige et al., 1962) with B5 vitamins (Gamborg et al., 1968) and 3% sucrose (MSO media) containing 200 mg/l kanamycin. T1 seeds from plants transformed with pS15-ABC-dKan were surface sterilized and germinated on the media. Root growth analysis was performed as above on vertically positioned plates where 6 seeds per plate and 6 replicate plates for each event were germinated with and without 100 and 200 mg/l kanamycin. Root length was measured after 3 weeks. All experiments were performed in a 25° C. growth cabinet under constant 40 μE irradiance.

[3] = tested on: Arabidopsis thaliana insertional knockout mutants; test: Root growth of Arabidopsis insertional mutants on MSO media with kanamycin; format: in vivo; conditions: media with 100 mg/l kanamycin, 2 weeks
Description: Sequence-tagged insertional mutant lines for the three ABC transporters, Atwbc19 (SALK—107731), Atwbc18 (SALK—100187) and Atwbc16 (SALK—119868) were obtained from ABRC Arabidopsis knock-out library. Homozygosity was tested by PCR of genomic DNA using 3 primers (Table 1). Two of the primers are specific to the native gene and amplify a known fragment. The third primer is specific to the T-DNA. Where the T-DNA is inserted between the two gene specific primers, a smaller fragment is generated allowing the identification of insertion in the gene of interest. The fragment was sequenced to ensure that it mapped at the expected loci. Kanamycin resistance was assessed by growing the mutants on MSO media with and without 100 mg/l kanamycin. Stratified seeds were germinated on 4 Petri dishes with 6 plants for each line and placed vertically in a growth chamber at 25 degrees. Root length was measured after 2 weeks. To quantify NPTII protein levels, total protein was extracted from 100 mg of root and shoot tissue from seedlings germinated on MSO media for 2 weeks, with 2 replicate samples per line. An ELISA was performed using a kit according to the manufactures instructions (Agdia, Elkhart, Ind., USA).

Molecule: NCC[C@H](O)C(=O)N[C@@H]1C[C@H](N)[C@@H](O[C@H]2O[C@H](CN)[C@@H](O)[C@H](O)[C@H]2O)[C@H](O)[C@H]1O[C@H]1O[C@H](CO)[C@@H](O)[C@H](N)[C@H]1O [amikacin]
- resistance of plants to the antibiotic [1]: no resistance

Molecule: O=C(N[C@H](CO)[C@H](O)c1ccc([N+](=O)[O-])cc1)C(Cl)Cl [chloramphenicol]
- resistance of plants to the antibiotic [1]: no resistance

Molecule: NC[C@H]1O[C@H](O[C@H]2[C@H](O)[C@@H](O[C@H]3O[C@H](CO)[C@@H](O)[C@H](N)[C@H]3O)[C@H](N)C[C@@H]2N)[C@H](O)[C@@H](O)[C@@H]1O [kanamycin]
- kanamycin concentrations to which Atwbc19 confers resistance (Escherichia coli DH5α): below 12.5 mg/l
- Root length ([2]; Atwbc19 transgenic event #28, T1 seeds): 1.03±0.55 cm
- Root length ([2]; Atwbc19 transgenic event #30, T1 seeds): 2.02±1.16 cm
- Root length ([2]; control (non-transgenic) tobacco): 0.37±0.09 cm
- root growth (root length) ([3]; line SALK—100187 (Atwbc18 mutant)): 1.82±0.25 cm
- root growth (root length) ([3]; line SALK—107731 (Atwbc19 mutant)): 0.31±0.04 cm
- root growth (root length) ([3]; line SALK—119868 (Atwbc16 mutant)): 0.30±0.03 cm

Molecule: [H]/N=C(/N)N[C@H]1[C@H](O)[C@@H](O)[C@H](O[C@@H]2O[C@@H](C)[C@](O)(C=O)[C@H]2O[C@@H]2O[C@@H](CO)[C@H](O)[C@@H](O)[C@@H]2NC)[C@@H](N/C(N)=N\[H])[C@@H]1O [streptomycin]
- resistance of plants to the antibiotic [1]: no resistance

Molecule: gentamycin
- resistance of plants to the antibiotic [1]: no resistance
